How the values were obtained:
[1] = tested on: Sclerotinia homoeocarpa (SCLEHO); experiment: Field assessment of Sclerotinia homoeocarpa (SCLEHO), dollar spot, on creeping bentgrass; format: in vivo
[2] = tested on: Glomerella graminicola (COLLGR); experiment: Field assessment of Glomerella graminicola (COLLGR), anthracnose, on annual bluegrass; format: in vivo

## COc1ccnc(C(=O)N[C@@H](C)C(=O)O[C@@H](C)C(c2ccc(F)cc2)c2ccc(F)cc2)c1OC(C)=O [Compound I, (S)-1,1-bis(4-fluorophenyl)propan-2-yl (3-acetoxy-4-methoxypicolinoyl)-L-alaninate]
[1]; 250 g ai/ha, 0 DAAA, percentage of plot infested
  Dollar Spot Infestation (% Visual): 2.2%
[1]; 250 g ai/ha, 6 DAAC
  Dollar Spot Infestation (% Visual): 0.6%
[1]; 250 g ai/ha, 8 DAAA
  Dollar Spot Infestation (% Visual): 0.8%
[1]; 250 g ai/ha, 8 DAAB
  Dollar Spot Infestation (% Visual): 0.8%
[1]; 250 g ai/ha, 13 DAAB
  Dollar Spot Infestation (% Visual): 1.1%
[1]; 250 g ai/ha, 13 DAAC
  Dollar Spot Infestation (% Visual): 2.1%
[1]; 250 g ai/ha, 14 DAAA
  Dollar Spot Infestation (% Visual): 0.7%
[1]; 500 g ai/ha, 0 DAAA
  Dollar Spot Infestation (% Visual): 1.7%
[1]; 500 g ai/ha, 6 DAAC
  Dollar Spot Infestation (% Visual): 0.3%
[1]; 500 g ai/ha, 8 DAAA
  Dollar Spot Infestation (% Visual): 0.5%
[1]; 500 g ai/ha, 8 DAAB
  Dollar Spot Infestation (% Visual): 0.5%
[1]; 500 g ai/ha, 13 DAAB
  Dollar Spot Infestation (% Visual): 0.6%
[1]; 500 g ai/ha, 13 DAAC
  Dollar Spot Infestation (% Visual): 0.5%
[1]; 500 g ai/ha, 14 DAAA
  Dollar Spot Infestation (% Visual): 0.5%
[1]; Compound I applied at 500 g ai/ha
  Dollar spot control compared with commercial standards (in words): provided better control than Eagle 20EW and was equivalent to Xzemplar Fungicide
[1]; formulations of Compound I, observation period
  Dollar spot disease control (in words): significantly reduce dollar spot disease
[2]; 250 and 500 g ai/ha treatments, Poa annua
  Anthracnose control compared with commercial standard (in words): equivalent to the control provided by Velista
[2]; 250 g ai/ha, 0 DAAA, Poa annua, percentage of plot infested
  Anthracnose Infestation (% Visual): 22.1%
[2]; 250 g ai/ha, 8 DAAA, Poa annua
  Anthracnose Infestation (% Visual): 7%
[2]; 250 g ai/ha, 10 DAAB, Poa annua
  Anthracnose Infestation (% Visual): 22.1%
[2]; 250 g ai/ha, 11 DAAC, Poa annua
  Anthracnose Infestation (% Visual): 11.5%
[2]; 250 g ai/ha, 14 DAAA, Poa annua
  Anthracnose Infestation (% Visual): 7%
[2]; 250 g ai/ha, 17 DAAB, Poa annua
  Anthracnose Infestation (% Visual): 11.5%
[2]; 250 g ai/ha, 17 DAAC, Poa annua
  Anthracnose Infestation (% Visual): 22.1%
[2]; 500 g ai/ha, 0 DAAA, Poa annua
  Anthracnose Infestation (% Visual): 43.2%
[2]; 500 g ai/ha, 8 DAAA, Poa annua
  Anthracnose Infestation (% Visual): 9.2%
[2]; 500 g ai/ha, 10 DAAB, Poa annua
  Anthracnose Infestation (% Visual): 9.2%
[2]; 500 g ai/ha, 11 DAAC, Poa annua
  Anthracnose Infestation (% Visual): 11.5%
[2]; 500 g ai/ha, 14 DAAA, Poa annua
  Anthracnose Infestation (% Visual): 7%
[2]; 500 g ai/ha, 17 DAAB, Poa annua
  Anthracnose Infestation (% Visual): 11.5%
[2]; 500 g ai/ha, 17 DAAC, Poa annua
  Anthracnose Infestation (% Visual): 11.5%
[2]; formulations of Compound I, Poa annua putting greens
  Anthracnose disease control (in words): provided significant control of anthracnose disease

Reference: patent US11191269B2, “Use of an acyclic picolinamide compound as a fungicide for fungal diseases on turfgrasses” (Dow AgroSciences LLC, priority 2017, dated 2021)
